# In US10328161B2, “Luciferin derivatives from bicyclic reactants and aminothiol derivatives and methods of use thereof” (The Regents of the University of California, priority 2012, dated 2019):
# Key:
# H2O2 and caspase 8 = test: Lipopolysaccharide inflammation model, dual detection with PCL-2 and IETDC; assay type: in vivo; settings: ascorbic acid 200 mg/kg and z-VD-OPh 1 μmol used together, LPS-treated mice
# Source text: (§1) A Xenogen IVIS Spectrum instrument (Caliper Life Sciences, Hopkinton, Mass.) was used for bioluminescent imaging in all animal experiments. Mice were anesthetized prior to injection and during imaging via inhalation of isoflurane. Phosphate Buffered Saline (PBS) was purchased from Thermo Fisher Scientific (Waltham, Mass.), and saline (0.9%) was made from sodium chloride and Millipore water. Isoflurane was purchased from Phoenix Pharmaceuticals, Inc. (St. Joseph, Mo.), and pharmaceutical grade DMSO was purchased from Sigma-Aldrich (St. Louis, Mo.). Medical grade oxygen was purchased from Praxair (Danbury, Conn.).
# (§2) FVB-luc^+ (FVB-Tg(CAG-luc,-GFP)L2G85Chco/J) mice were bred at UC Berkeley, and were single or group-housed on a 12:12 light-dark cycle at 22° C. with free access to food and water. All studies were approved and performed according to the guidelines of the Animal Care and Use Committee of the University of California, Berkeley.
# For studies with PCL-2 and IETDC, mice were injected IP with ascorbic acid (200 mg/kg in 30 μL of saline) or the saline vehicle (30 μL) 30 min prior to IP injection of LPS (3 mg/kg in 50 μL of saline) or saline (50 μL). Two hours after injection of LPS, z-VD(OMe)-OPh (1 μmol in 20 μL of DMSO) or the vehicle, DMSO (20 μL), was injected IP. […]
# FVB-luc^+ mice = test: Control: effect of inhibitors and antioxidants on HCBT and D-cysteine luciferin signal in mice; assay type: in vivo
# Protocol: (a) Total photon fluxes, 0-15 min post-injection, for mice (n=3) injected with apocynin (IP, 10 mg/kg in 20 μL DMSO) or vehicle (IP, 20 μL DMSO) two min prior to injections of a mixture of HCBT and D-cysteine (IP, 0.01 μmol each, in 50 μL of 1:1 DMSO:PBS). (b) Total photon fluxes, 15-45 min post-injection, for mice (n=3) injected with z-VD(OMe)-OPh (IP, 1 μmol in 20 μL DMSO) or vehicle (IP, 20 μL DMSO) 30 min prior to injections of a mixture of HCBT and D-cysteine (IP, 0.01 μmol each, in 50 μL of 1:1 DMSO:PBS). Error bars are ±SEM.
# FIG. 18 depicts bioluminescent signals from HCBT and D-cysteine with ascorbic acid in FVB-luc^+ mice. Total photon fluxes, 30-60 min post-injection, for mice (n=3-4) injected with ascorbic acid (IP, 200 mg/kg in 30 μL saline) or vehicle (IP, 30 μL saline) 4.5 h prior to injections of a mixture of HCBT and D-cysteine (IP, 0.01 μmol each, in 50 μL of 1:1 DMSO:PBS). Error bars are ±SEM.
# caspase 8 = target: T1, caspase 8 (Homo sapiens, UniProt Q14790); test: Selectivity assay for IETDC: caspase 8; assay type: biochemical
# T1 construct: purchased Sigma-Aldrich
# Protocol: (§3) Millipore water was used to prepare all aqueous solutions. Luciferase (100 μg/mL) in 50 mM Tris buffer, pH 7.4, with 10 mM MgCl2, 0.1 mM ZnCl2, and 2 mM ATP was added to selectivity assay samples (described below) to determine the relative amount of luciferin formed during incubation. Measurements for bioluminescent assays were performed at 37° C. and were recorded using a Molecular Devices SpectraMax M2 plate reader (Sunnyvale, Calif.). Samples for bioluminescent measurements were placed in white, opaque 96-well plates, which were purchased from Corning Inc. (Corning, N.Y.). ATP was purchased from MP Biomedicals (Solon, Ohio) or Sigma-Aldrich (St. Louis, Mo.), and luciferase was purchased from Promega (Madison, Wis.). Caspase enzymes were purchased from Sigma-Aldrich (St. Louis, Mo.), and caspase inhibitors were purchased from MP Biomedicals (Solon, Ohio).
# For determination of caspase selectivity, various caspases (3 and 8:1 unit, 9:0.001 unit) were administered to IETDC or D-cysteine (5 μM) in Tris buffer (50 mM, pH 7.4). […] After each enzyme was incubated with IETDC or D-cysteine for 60 min, 100 μL of a Tris buffer (50 mM, pH 7.4) containing luciferase (100 μg/mL), 10 mM MgCl2, 0.1 mM ZnCl2, and 2 mM ATP was added to 100 μL of the IETDC or D-cysteine solutions and the bioluminescent signal was detected.
# [1] = Selectivity assays for dual H2O2 and caspase 8 detection in vitro; assay type: biochemical; settings: for effect of a single inhibitor on the dual-analyte signal: catalase 1 unit or Q-VD-OPh 10 μM, with H2O2 and caspase 8; for effect of both inhibitors together on the dual-analyte signal: catalase 1 unit plus Q-VD-OPh 10 μM combined; for interference with in situ luciferin formation from HCBT and D-cysteine: catalase 1 unit, Q-VD-OPh 10 μM
# Protocol: as §3
# To quench H2O2 immediately, catalase (1 unit) was subsequently added to some of the solutions. After 60 min, catalase (1 unit) was added to all other solutions containing H2O2 to quench any remaining H2O2. Subsequently, caspase 8 (1 unit) was added to the solutions in the presence or absence of the caspase inhibitor, Q-VD-OPh (10 μM), 15 min prior to IETDC (10 μM) or D-cysteine (5 μM) addition. Following IETDC or D-cysteine addition, the solutions were incubated for 60 min. Additionally, dithiothreitol (1 mM) was added to all solutions at the time of caspase 8 addition to maintain the reduced state of the D-cysteine. To monitor luciferin formation, 100 μL of a Tris buffer (50 mM, pH 7.4) containing luciferase (100 μg/mL), 10 mM MgCl2, 0.1 mM ZnCl2, and 2 mM ATP was added to 100 μL of the PCL-2/IETDC or HCBT/D-cysteine solutions and the bioluminescent signal was detected.
# [2] = Selectivity assay for PCL-2: response to H2O2; assay type: biochemical; settings: H2O2 100 μM and catalase 0.4 mg/mL
# Protocol: as §3
# Various ROS (100 μM) were administered to PCL-2 or HCBT (5 μM) in Tris buffer (50 mM, pH 7.4) with or without 10 mM MgCl2 and 0.1 mM ZnCl2. […] After an additional 15 min incubation, 100 μL of a Tris buffer (50 mM, pH 7.4) containing luciferase (100 μg/mL), 10 mM MgCl2, 0.1 mM ZnCl2, and 2 mM ATP was added to 100 μL of the PCL-2 or HCBT solutions and the bioluminescent signal was detected.
# [3] = Lipopolysaccharide inflammation model, H2O2 detection with PCL-2; assay type: in vivo, mice; settings: apocynin 10 mg/kg IP, LPS-treated mice
# Source text: as §1, §2
# Unshaven, female FVB-luc^+ mice, aged 2-5 months, were anesthetized with isoflurane and injected IP with lipopolysaccharides (LPS, 3 mg/kg in 50 μL of saline) or saline (50 μL). For studies with PCL-2 alone, mice were injected IP with either apocynin (10 mg/kg in 20 μL of DMSO) or DMSO (20 μL) 6 h after LPS injection. […]
# PC3M-luc cells [4] = test: Comparison of in situ luciferin formation and luciferin in PC3M-luc cells (intact and lysed); assay type: cell-based; settings: inferred from intact versus lysed PC3M-luc cells
# Protocol: (§4) A Xenogen IVIS Spectrum instrument (Caliper Life Sciences, Hopkinton, Mass.) was used for bioluminescent imaging in all cellular experiments. PC3M-luc cells (kindly provided by Chris Contag, Stanford University) were cultured in Dulbecco's Modified Eagle Medium (DMEM) containing 10% Fetal Bovine Serum (FBS). Prior to assaying, cells were passed and plated (1.3-1.5×10^4 cells/well) in black 96-well plates with clear bottoms (Becton Dickinson and Company, Franklin Lakes, N.J.). Once the cells were ca. 95% confluent, reagents were added for bioluminescent assays.
# PC3M-luc cells prepared as described above were washed with HBSS (25 mM glucose) prior to addition of HCBT and D-cysteine (0-500 μM, 1% DMSO) or luciferin (0-500 μM, 1% DMSO) in HBSS (25 mM glucose). For experiments with lysed cells, 100 μL Glo lysis buffer (Promega, Madison, Wis.) was incubated with the PC3M-luc cells for 5 min prior to addition of HCBT and D-cysteine or luciferin. The plates were immediately imaged for 2 h to determine the peak bioluminescent signal produced.
# PC3M-luc cells [5] = test: Lifetime of HCBT and D-cysteine in PC3M-luc cells; assay type: cell-based; settings: 100 μM, 30 min incubation, wash, complementary reagent after 0-60 min
# Protocol: as §4
# The medium was removed from PC3M-luc cells prepared as described above, and HCBT (100 μM, 1% DMSO) or D-cysteine (100 μM, 1% PBS) in DMEM (-FBS) was added. After a 30 min incubation, the HCBT or D-cysteine was removed, the cells were washed with DMEM (-FBS), and fresh DMEM was added. After 0, 15, 30, 45, or 60 min, the second component of luciferin, D-cysteine (100 μM final concentration, 1% PBS) or HCBT (100 μM final concentration, 1% DMSO) in HBSS (25 mM glucose) was added, and the plate was immediately imaged for 2 h to determine the peak bioluminescent signal produced.
# [6] = Exogenous H2O2 experiments in mice; assay type: in vivo; settings: for Turn-on: PCL-1 0.5 μmol
# Source text: as §1, §2
# Unshaven, male FVB-luc^+ mice were anesthetized with isoflurane and injected IP with a mixture of PCL-2 and D-cysteine (0.05 μmol each, in 50 μL of 1:1 DMSO:PBS), followed immediately by an IP injection of H2O2 (0-4.5 μmol in 100 μL of PBS). Control mice were injected IP with a mixture of HCBT and D-cysteine (0.01 μmol each, in 50 μL of 1:1 DMSO:PBS) immediately prior to H2O2 (4.5 μmol in 100 μL of PBS). Following injections, mice were imaged with an IVIS Spectrum.
# T1 sequence (Q14790 217-374 limits assumed, species assumed): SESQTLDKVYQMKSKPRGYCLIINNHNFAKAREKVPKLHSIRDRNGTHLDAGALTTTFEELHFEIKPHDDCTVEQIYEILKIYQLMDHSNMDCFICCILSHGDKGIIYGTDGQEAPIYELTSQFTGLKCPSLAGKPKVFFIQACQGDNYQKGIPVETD
# T1 sequence (Q14790 385-479 limits assumed, species assumed): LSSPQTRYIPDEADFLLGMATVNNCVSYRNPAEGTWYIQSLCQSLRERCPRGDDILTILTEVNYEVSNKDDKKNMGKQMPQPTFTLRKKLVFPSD
compound,measurement,setting,value
O=C1O[C@H]([C@@H](O)CO)C(O)=C1O [ascorbic acid],decrease in dual-probe bioluminescent signal,H2O2 and caspase 8,30%
same,effect on the bioluminescent signal from HCBT and D-cysteine,FVB-luc^+ mice; ascorbic acid 200 mg/kg IP 4.5 h before HCBT and D-cysteine 0.01 μmol each,did not impact the bioluminescent signal
CC(C)[C@H](NC(=O)c1ccc2ccccc2n1)C(=O)N[C@@H](CC(=O)O)C(=O)COc1c(F)cccc1F [Q-VD-OPh],effect of caspase inhibitor on the response of IETDC to caspase 8,caspase 8; Q-VD-OPh 10 μM,complete attenuation
same,effect of a single inhibitor on the dual-analyte signal,[1],attenuated the increase in signal
same,effect of both inhibitors together on the dual-analyte signal,[1],complete attenuation of signal
same,interference with in situ luciferin formation from HCBT and D-cysteine,[1],did not interfere with in situ luciferin formation
catalase,effect of catalase on the H2O2 turn-on signal of PCL-2,[2],attenuated
same,effect of a single inhibitor on the dual-analyte signal,[1],attenuated the increase in signal
same,effect of both inhibitors together on the dual-analyte signal,[1],complete attenuation of signal
same,interference with in situ luciferin formation from HCBT and D-cysteine,[1],did not interfere with in situ luciferin formation
COc1cc(C(C)=O)ccc1O [apocynin],reduction in PCL-2 signal upon treatment,[3],55%
same,effect on the luciferin signal from HCBT and D-cysteine in vivo,"FVB-luc^+ mice; apocynin 10 mg/kg or z-VD-OPh 1 μmol IP, HCBT and D-cysteine 0.01 μmol each",do not alter the luciferin signal
N[C@H](CS)C(=O)O [D-cysteine],permeability across the cell membrane compared to luciferin,PC3M-luc cells [4],increased permeability
same,cellular lifetime: signal as time between removal and addition of the complementary reagent increases,PC3M-luc cells [5],still fully available for reaction with HCBT
same,change in bioluminescent signal on incubation with caspase enzymes,"caspase 8; D-cysteine 5 μM with HCBT, caspases 8, 3, 9",no change in bioluminescent signal
O=C(O)[C@H]1CSC(c2nc3ccc(OCc4ccc(B(O)O)cc4)cc3s2)=N1 [PCL-1],Turn-on,[6]; H2O2 0.037 μmol,1.5-fold
same,Turn-on,[6]; H2O2 0.15 μmol,2.0-fold
same,Turn-on,[6]; H2O2 0.6 μmol,2.7-fold
same,detection limit for H2O2 in vivo,"[6]; IP, FVB-luc^+ mice, optimized imaging conditions for each probe",0.037 µmol
